# Earlier results, collected in US11155746B2, “Compositions and methods for reducing hydrogen sulfide and microbial influenced corrosion in crude oil, natural gas, and in associated equipment” (priority 2017, dated 2021).
# Conditions: atmospheric exposure
structure (smiles),measurement,value
"S [H2S, hydrogen sulfide]",exposure concentration that can be rapidly fatal,above 600 ppm
same,exposure concentration that can cause damage to internal organs,above 100 ppm
